# In patent US20120258976A1, “CRYSTALLINE PYRROLO[2,3-D]PYRIMIDINE COMPOUNDS” (Pfizer Inc., priority 2011, published 2012):
# Experiment: Tofacitinib stability in PEG-based ointment formulations after storage at 40° C.
# Assay type: physicochemical
# Description: Topical formulations contain 3-((3R,4R)-4-methyl-3-[methyl-(7H-pyrrolo[2,3-d]pyrimidin-4-yl)amino]-piperidin-1-yl)-3-oxopropionitrile in therapeutically effective amounts that can be given in daily or twice daily doses to patients in need. These amounts range from about 0.1% to about 5.0% (w/v), more preferably, from about 0.1% to about 3.0%, more preferably still, from about 0.5% to about 2.3%, and, most preferably, about 2.0% (w/v). Among other excipients which enhance the stability of these formulations include aldehyde scavengers, such as glycerine and propylene glycol, and antioxidants, such as butyl hydroxyanisole (BHA), butyl hydroxytoluene (BHT), propyl gallate, ascorbic acid (Vitamin C), polyphenols, tocopherols (Vitamin E), and their derivatives. Preferably, PEG-based ointment formulations containing at least 30% polyethylene glycol, tofacifinib and one or more penetration enhancers and additional pharmaceutically acceptable excipients forming a stable formulation such that the level of total degradants is no more than 7% when the product is stored at 40° C. for 4 weeks. More preferably, addition of aldehyde scavengers and antioxidants into formulations Ointment 1 (A) and Ointment 2 (C) stabilized the polyethylene glycol containing ointment formulations such that the level of total degradants is no more than 5% when the product is stored at 40° C. for 4 weeks.
structure (smiles),measurement,value
"C[C@@H]1CCN(C(=O)CC#N)C[C@@H]1N(C)c1ncnc2[nH]ccc12 [tofacitinib, 3-((3R,4R)-4-Methyl-3-[methyl-(7H-pyrrolo[2,3-d]pyrimidin-4-yl)-amino]-piperidin-1-yl)-3-oxopropionitrile]",Stability of tofacitinib in the presence of polyethylene glycol (PEG),poor stability
